“And” between values parts separate entries of the source, which are not always exact repeats. Equal entries are not always repeated. Toxic doses and inconclusive results are not listed.
Tested on: B6C3F1 mice, B16 melanoma ip, median survival T/C
Experiment: NCI In Vivo Anticancer Drug Screen. Data for tumor model B16 Melanoma (intraperitoneal) in B6C3F1 mice
Settings: endpoint: median survival time, higher = longer survival
Method in brief: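 Tumor-bearing mice received test compound; a separate group got vehicle only. Survival was then compared, with results reported as treated over control.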

[1] = dose: 100.0 mg/kg/injection, schedule: Q01DX009 (ip), vehicle: saline
[2] = dose: 200.0 mg/kg/injection, schedule: Q01DX009 (ip), vehicle: saline
[3] = dose: 400.0 mg/kg/injection, schedule: Q01DX009 (ip), vehicle: saline
[4] = dose: 12.5 mg/kg/injection, schedule: Q01DX009 (ip), vehicle: saline
[5] = dose: 50.0 mg/kg/injection, schedule: Q01DX009 (ip), vehicle: saline
[6] = dose: 6.25 mg/kg/injection, schedule: Q01DX009 (ip), vehicle: saline with Tween-80
[7] = dose: 12.5 mg/kg/injection, schedule: Q01DX009 (ip), vehicle: saline with Tween-80
[8] = dose: 25.0 mg/kg/injection, schedule: Q01DX009 (ip), vehicle: saline
[9] = dose: 6.25 mg/kg/injection, schedule: Q01DX009 (ip), vehicle: saline
[10] = dose: 100.0 mg/kg/injection, schedule: Q01DX009 (ip), vehicle: saline with Tween-80
[11] = dose: 25.0 mg/kg/injection, schedule: Q01DX009 (ip), vehicle: saline with Tween-80
[12] = dose: 50.0 mg/kg/injection, schedule: Q01DX009 (ip), vehicle: saline with Tween-80
[13] = dose: 200.0 mg/kg/injection, schedule: Q01DX009 (ip), vehicle: saline with Tween-80

## Nc1ncnc2c1ncn2C1OC(COP(=O)(O)O)C(O)C1O (stereo unspecified)
dose: 40.0 mg/kg/injection, schedule: Q01DX009 (ip), vehicle: water
  T/C: 86 % of control
dose: 80.0 mg/kg/injection, schedule: Q01DX009 (ip), vehicle: water
  T/C: 88 % of control
[1]
  T/C: 109 % of control
dose: 160.0 mg/kg/injection, schedule: Q01DX009 (ip), vehicle: water
  T/C: 94 % of control
[2]
  T/C: 109 % of control
dose: 320.0 mg/kg/injection, schedule: Q01DX009 (ip), vehicle: water
  T/C: 97 % of control
[3]
  T/C: 115 % of control

## O=P1(N(CCCl)CCCl)NCCCO1 (stereo unspecified)
[4]
  T/C: 121 % of control
dose: 18.75 mg/kg/injection, schedule: Q01DX005 (ip), vehicle: saline
  T/C: 104 % of control
dose: 18.75 mg/kg/injection, schedule: Q01DX005 (iv), vehicle: saline
  T/C: 111 % of control
dose: 25.0 mg/kg/injection, schedule: Q01DX001 (ip), vehicle: saline
  T/C: 108 % of control and 103 % of control
dose: 37.5 mg/kg/injection, schedule: Q01DX001 (ip), vehicle: saline
  T/C: 106 % of control
dose: 37.5 mg/kg/injection, schedule: Q01DX001 (iv), vehicle: saline
  T/C: 104 % of control
dose: 37.5 mg/kg/injection, schedule: Q01DX005 (ip), vehicle: saline
  T/C: 121 % of control
dose: 50.0 mg/kg/injection, schedule: Q01DX001 (ip), vehicle: saline
  T/C: 111 % of control and 103 % of control
[5]
  T/C: 154 % of control
dose: 75.0 mg/kg/injection, schedule: Q01DX001 (ip), vehicle: saline
  T/C: 116 % of control
dose: 75.0 mg/kg/injection, schedule: Q01DX001 (iv), vehicle: saline
  T/C: 114 % of control
dose: 75.0 mg/kg/injection, schedule: Q01DX005 (iv), vehicle: saline
  T/C: 166 % of control
dose: 150.0 mg/kg/injection, schedule: Q01DX005 (ip), vehicle: saline
  T/C: 190 % of control
dose: 200.0 mg/kg/injection, schedule: Q01DX001 (ip), vehicle: saline
  T/C: 157 % of control and 161 % of control
dose: 300.0 mg/kg/injection, schedule: Q01DX001 (ip), vehicle: saline
  T/C: 185 % of control
dose: 300.0 mg/kg/injection, schedule: Q01DX001 (iv), vehicle: saline
  T/C: 166 % of control

## O=C1c2ccccc2CCC1Cl (stereo unspecified)
dose: 1.5 mg/kg/injection, schedule: Q01DX009 (ip), vehicle: DMSO
  T/C: 87 % of control
dose: 3.0 mg/kg/injection, schedule: Q01DX009 (ip), vehicle: DMSO
  T/C: 86 % of control and 87 % of control and 88 % of control
dose: 12.0 mg/kg/injection, schedule: Q01DX009 (ip), vehicle: DMSO
  T/C: 89 % of control
dose: 1.2 micrograms/kg/injection, schedule: Q01DX009 (ip), vehicle: DMSO
  T/C: 91 % of control
dose: 2.5 micrograms/kg/injection, schedule: Q01DX009 (ip), vehicle: DMSO
  T/C: 86 % of control
dose: 5.0 micrograms/kg/injection, schedule: Q01DX009 (ip), vehicle: DMSO
  T/C: 87 % of control
dose: 10.0 micrograms/kg/injection, schedule: Q01DX009 (ip), vehicle: DMSO
  T/C: 88 % of control

## COC1=CC(=O)C(OC)=C(OC)C1=O
dose: 3.12 mg/kg/injection, schedule: Q01DX009 (ip), vehicle: saline with Tween-80
  T/C: 97 % of control
[6]
  T/C: 92 % of control
[7]
  T/C: 99 % of control

## COCCOC(=O)Cc1ccc(OC)c(OC)c1
[4]
  T/C: 108 % of control
[8]
  T/C: 98 % of control
[5]
  T/C: 104 % of control
[3]
  T/C: 87 % of control

## CC1=CC(=O)C(O)C2(C)C1CC1OC(=O)C(OC(=O)CC(C)(C)O)C3C(C)C(O)C4(O)OCC13C42 (stereo unspecified)
dose: 0.25 mg/kg/injection, schedule: Q01DX009 (ip), vehicle: saline + alcohol
  T/C: 108 % of control
dose: 0.5 mg/kg/injection, schedule: Q01DX009 (ip), vehicle: saline + alcohol
  T/C: 116 % of control
dose: 1.0 mg/kg/injection, schedule: Q01DX009 (ip), vehicle: saline + alcohol
  T/C: 110 % of control
dose: 2.0 mg/kg/injection, schedule: Q01DX009 (ip), vehicle: saline + alcohol
  T/C: 116 % of control
dose: 4.0 mg/kg/injection, schedule: Q01DX009 (ip), vehicle: saline + alcohol
  T/C: 120 % of control

## C[CH2][Ge]([CH2]C)[CH2]C.C[CH2][Ge]([CH2]C)[CH2]C.C[CH2][Ge]([CH2]C)[O][Ge]([CH2]C)[CH2]C
dose: 3.13 mg/kg/injection, schedule: Q01DX009 (ip), vehicle: saline with Tween-80
  T/C: 89 % of control
[6]
  T/C: 93 % of control
[7]
  T/C: 87 % of control

## O=c1n(CC2CO2)c(=O)n(CC2CO2)n1CC1CO1 (stereo unspecified)
dose: 3.0 mg/kg/injection, schedule: Q01DX009 (ip), vehicle: saline
  T/C: 172 % of control
dose: 6.0 mg/kg/injection, schedule: Q01DX009 (ip), vehicle: saline
  T/C: 212 % of control
[9]
  T/C: 183 % of control
dose: 12.0 mg/kg/injection, schedule: Q01DX009 (ip), vehicle: saline
  T/C: 300 % of control
[4]
  T/C: 198 % of control

## CC(=O)Nc1cc2oc3ccccc3c2cc1[N+](=O)[O-]
[10]
  T/C: 88 % of control
dose: 400.0 mg/kg/injection, schedule: Q01DX009 (ip), vehicle: saline with Tween-80
  T/C: 91 % of control

## Clc1ccc2nnnn2n1
[7]
  T/C: 95 % of control
[11]
  T/C: 105 % of control
[12]
  T/C: 108 % of control and 116 % of control and 123 % of control
[10]
  T/C: 111 % of control
[13]
  T/C: 167 % of control

## ClCC[N+]12CC[N+](CCCl)(CC1)C2
dose: 12.5 mg/kg/injection, schedule: Q01DX009 (ip), vehicle: water
  T/C: 98 % of control
dose: 25.0 mg/kg/injection, schedule: Q01DX009 (ip), vehicle: water
  T/C: 114 % of control
dose: 50.0 mg/kg/injection, schedule: Q01DX009 (ip), vehicle: water
  T/C: 104 % of control
dose: 100.0 mg/kg/injection, schedule: Q01DX009 (ip), vehicle: water
  T/C: 108 % of control

## COC1C(/C=C/C(C)=O)OC2OC(C)(C)OC21 (stereo unspecified)
[9]
  T/C: 92 % of control and 94 % of control and 100 % of control
[4]
  T/C: 93 % of control and 97 % of control and 98 % of control
[8]
  T/C: 91 % of control and 96 % of control and 101 % of control
[5]
  T/C: 108 % of control and 87 % of control and 101 % of control
[1]
  T/C: 93 % of control and 103 % of control and 104 % of control
[2]
  T/C: 112 % of control

## COc1cccc2c1C(=O)c1c(O)c3c(c(O)c1C2=O)C[C@@](O)(C(C)=O)C[C@@H]3OC1CC(N)C(O)C(C)O1 (stereo partly specified)
dose: 0.12 mg/kg/injection, schedule: Q01DX009 (ip), vehicle: water
  T/C: 151 % of control
dose: 0.25 mg/kg/injection, schedule: Q01DX009 (ip), vehicle: water
  T/C: 171 % of control
dose: 0.5 mg/kg/injection, schedule: Q01DX009 (ip), vehicle: water
  T/C: 174 % of control and 186 % of control
dose: 1.0 mg/kg/injection, schedule: Q01DX009 (ip), vehicle: water
  T/C: 154 % of control and 285 % of control
dose: 1.5 mg/kg/injection, schedule: Q01DX001 (ip), vehicle: water
  T/C: 187 % of control
dose: 2.0 mg/kg/injection, schedule: Q01DX009 (ip), vehicle: water
  T/C: 242 % of control and 96 % of control
dose: 3.0 mg/kg/injection, schedule: Q01DX001 (ip), vehicle: water
  T/C: 218 % of control
dose: 6.0 mg/kg/injection, schedule: Q01DX001 (ip), vehicle: water
  T/C: 122 % of control

## FC(F)(F)c1ccc2c(c1)N(CCCN1CCN(CCN3CCCCC3)CC1)c1ccccc1S2
dose: 0.78 mg/kg/injection, schedule: Q01DX009 (ip), vehicle: saline
  T/C: 94 % of control
dose: 1.56 mg/kg/injection, schedule: Q01DX009 (ip), vehicle: saline
  T/C: 109 % of control and 89 % of control
dose: 3.12 mg/kg/injection, schedule: Q01DX009 (ip), vehicle: saline
  T/C: 118 % of control and 99 % of control
[9]
  T/C: 99 % of control and 101 % of control
[4]
  T/C: 98 % of control
[8]
  T/C: 94 % of control

## C1OCN2CSCC12 (stereo unspecified)
[7]
  T/C: 106 % of control
[11]
  T/C: 94 % of control and 99 % of control
[12]
  T/C: 92 % of control and 99 % of control
[10]
  T/C: 108 % of control and 109 % of control
[13]
  T/C: 109 % of control and 90 % of control

## Cc1ccc(C(=O)OC(C(=O)O)C(OC(=O)c2ccc(C)cc2)C(=O)O)cc1 (stereo unspecified) (tested in a mixture with another compound)
dose: 6.25 mg/kg/injection, schedule: Q01DX009 (ip), vehicle: other
  T/C: 93 % of control
dose: 12.5 mg/kg/injection, schedule: Q01DX009 (ip), vehicle: other
  T/C: 91 % of control
dose: 25.0 mg/kg/injection, schedule: Q01DX009 (ip), vehicle: other
  T/C: 111 % of control

## CC(C)(C)OC(=O)N1CCCC1C(=O)N1CCCC1C(=O)Oc1ccccc1 (stereo unspecified)
[11]
  T/C: 103 % of control
[12]
  T/C: 93 % of control
[10]
  T/C: 100 % of control
dose: 100.0 mg/kg/injection, schedule: Q01DX009 (ip), vehicle: suspension in saline
  T/C: 118 % of control
[13]
  T/C: 94 % of control
dose: 200.0 mg/kg/injection, schedule: Q01DX009 (ip), vehicle: suspension in saline
  T/C: 115 % of control
dose: 400.0 mg/kg/injection, schedule: Q01DX009 (ip), vehicle: suspension in saline
  T/C: 104 % of control
